The text below walks through data of US11820766B2, “Monoacylglycerol lipase modulators” (Janssen Pharmaceutica NV, priority 2018, dated 2023).

The first assay concerns the target T1, human MGL from HeLa cells (Homo sapiens, UniProt Q99685).
T1 construct: combining endogenously expressed MGL from HeLa cells with test compounds; endogenous in cells; host or cells: HeLa cells / cell homogenates
T1 sequence (Q99685 1-303): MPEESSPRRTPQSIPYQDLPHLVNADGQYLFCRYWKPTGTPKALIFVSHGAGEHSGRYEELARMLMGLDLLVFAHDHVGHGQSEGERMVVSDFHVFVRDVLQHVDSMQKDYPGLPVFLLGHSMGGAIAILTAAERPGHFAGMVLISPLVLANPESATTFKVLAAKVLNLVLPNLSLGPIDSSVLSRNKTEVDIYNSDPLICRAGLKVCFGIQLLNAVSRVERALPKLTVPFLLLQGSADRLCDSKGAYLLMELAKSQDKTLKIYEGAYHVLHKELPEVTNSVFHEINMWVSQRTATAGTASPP
In words: In vitro MGL activity assay: [glycerol-1,3-3H]-oleyl glycerol cleavage by MGL from HeLa cells. To be noted: 300 nM [Glycerol-1,3-3H]-oleyl glycerol, one hour. The assay is classed as biochemical. An excerpt: MGL is the predominant hydrolase in HeLa cells/cell homogenates.
What is called IC50 is the concentration needed to halve the response being measured. Low readings indicate higher potency, high ones lower potency. `C[C@H]1c2nn(C)c(-c3cc(F)c(F)c(F)c3)c2CCN1C(=O)c1cnn(C)c1C1CC1(F)F` (single isomer, unassigned) [Example 337, (5-((R*)-2,2-difluorocyclopropyl)-1-methyl-1H-pyrazol-4-yl)((S)-2,7-dimethyl-3-(3,4,5-trifluorophenyl)-2,4,5,7-tetrahydro-6H-pyrazolo[3,4-c]pyridin-6-yl)methanone] gave a 50% inhibitory concentration (IC50) of 8.07 nM.

`C[C@H]1c2nn(C)c(-c3cc(F)c(F)c(F)c3)c2CCN1C(=O)c1cnn(C)c1C1CC1(F)F` (single isomer, unassigned) [Example 338, (5-((S*)-2,2-Difluorocyclopropyl)-1-methyl-1H-pyrazol-4-yl)((S)-2,7-dimethyl-3-(3,4,5-trifluorophenyl)-2,4,5,7-tetrahydro-6H-pyrazolo[3,4-c]pyridin-6-yl)methanone] came in with an IC50 of 14.2 nM.

Regarding `CC1c2nn(C34CC(C3)C4)c(-c3ccccc3)c2CCN1C(=O)c1cnn(C)c1C1CC1` (single isomer, unassigned) [Example 342, (S*)-(2-(Bicyclo[1.1.1]pentan-1-yl)-7-methyl-3-phenyl-2,4,5,7-tetrahydro-6H-pyrazolo[3,4-c]pyridin-6-yl)(5-cyclopropyl-1-methyl-1H-pyrazol-4-yl)methanone], the IC50 is 255 nM.

The same assay, now with this note: 300 nM [Glycerol-1,3-3H]-oleyl glycerol, one hour incubation.
Take `Cn1nc2c(c1-c1ccccc1)CCN(C(=O)c1cccc3ccccc13)C2` [Example 1, (2-Methyl-3-phenyl-2,4,5,7-tetrahydro-6H-pyrazolo[3,4-c]pyridin-6-yl)(naphthalen-1-yl)methanone]: the 50% inhibitory concentration (IC50) was found to be 13 nM.

Consider `Cn1nc2c(c1C1CC1)CCN(C(=O)c1cccc(Cl)c1Cl)C2` [Example 2, (3-Cyclopropyl-2-methyl-2,4,5,7-tetrahydro-6H-pyrazolo[3,4-c]pyridin-6-yl)(2,3-dichlorophenyl)methanone], for which the midpoint of inhibition, the IC50, lay at 4600 nM.

As for `Cn1nc2c(c1C1CC1)CCN(C(=O)c1cccc3ccccc13)C2` [Example 3, (3-Cyclopropyl-2-methyl-2,4,5,7-tetrahydro-6H-pyrazolo[3,4-c]pyridin-6-yl)(naphthalen-1-yl)methanone], half-maximal inhibition (IC50) was put at 799 nM.

With `Cn1nc2c(c1-c1ccccc1)CCN(C(=O)c1cccc(OC(F)(F)F)c1F)C2` [Example 4, (2-Fluoro-3-(trifluoromethoxy)phenyl)(2-methyl-3-phenyl-2,4,5,7-tetrahydro-6H-pyrazolo[3,4-c]pyridin-6-yl)methanone], the IC50 turned out to be 433 nM.

Compound `COc1cccc(C(F)(F)F)c1C(=O)N1CCc2c(nn(C)c2-c2ccccc2)C1` [Example 5, (2-Methoxy-6-(trifluoromethyl)phenyl)(2-methyl-3-phenyl-2,4,5,7-tetrahydro-6H-pyrazolo[3,4-c]pyridin-6-yl)methanone] had an IC50 of more than 10000 nM.

`COc1cc(C(=O)N2CCc3c(nn(C)c3-c3ccccc3)C2)cc(C(F)(F)F)c1` [Example 6, (3-Methoxy-5-(trifluoromethyl)phenyl)(2-methyl-3-phenyl-2,4,5,7-tetrahydro-6H-pyrazolo[3,4-c]pyridin-6-yl)methanone] displayed a concentration for half-maximal inhibition (IC50) of 365 nM.

The compound `COc1c(C)cccc1C(=O)N1CCc2c(nn(C)c2-c2ccccc2)C1` [Example 7, (2-Methoxy-3-methylphenyl)(2-methyl-3-phenyl-2,4,5,7-tetrahydro-6H-pyrazolo[3,4-c]pyridin-6-yl)methanone] gave an IC50 of 113 nM.

Consider `CCc1c(OC)cccc1C(=O)N1CCc2c(nn(C)c2-c2ccccc2)C1` [Example 8, (2-Ethyl-3-methoxyphenyl)(2-methyl-3-phenyl-2,4,5,7-tetrahydro-6H-pyrazolo[3,4-c]pyridin-6-yl)methanone], for which the IC50 stood at 1840 nM.

The compound `COc1ccc(C(=O)N2CCc3c(nn(C)c3-c3ccccc3)C2)cc1OC` [Example 9, (3,4-Dimethoxyphenyl)(2-methyl-3-phenyl-2,4,5,7-tetrahydro-6H-pyrazolo[3,4-c]pyridin-6-yl)methanone] gave an IC50 of 441 nM.

`COc1cccc(OC)c1C(=O)N1CCc2c(nn(C)c2-c2ccccc2)C1` [Example 10, (2,6-Dimethoxyphenyl)(2-methyl-3-phenyl-2,4,5,7-tetrahydro-6H-pyrazolo[3,4-c]pyridin-6-yl)methanone] showed a half-inhibitory concentration (IC50) of more than 10000 nM.

Regarding `COc1cc(OC)cc(C(=O)N2CCc3c(nn(C)c3-c3ccccc3)C2)c1` [Example 11, (3,5-Dimethoxyphenyl)-(2-methyl-3-phenyl-5,7-dihydro-4H-pyrazolo[3,4-c]pyridin-6-yl)methanone], the IC50 was 187 nM.

In the case of `Cn1nc2c(c1-c1ccccc1)CCN(C(=O)c1cccc(O)c1Cl)C2` [Example 12, (2-Chloro-3-hydroxyphenyl)(2-methyl-3-phenyl-2,4,5,7-tetrahydro-6H-pyrazolo[3,4-c]pyridin-6-yl)methanone], inhibition was half-maximal at 3420 nM (IC50).

`COc1cccc(C(=O)N2CCc3c(nn(C)c3-c3ccccc3)C2)c1Cl` [Example 13, (2-Chloro-3-methoxyphenyl)(2-methyl-3-phenyl-2,4,5,7-tetrahydro-6H-pyrazolo[3,4-c]pyridin-6-yl)methanone] registered a concentration for half-maximal inhibition (IC50) of 16.8 nM.

Compound `COc1c(Cl)cccc1C(=O)N1CCc2c(nn(C)c2-c2ccccc2)C1` [Example 14, (3-Chloro-2-methoxy-phenyl)-(2-methyl-3-phenyl-5,7-dihydro-4H-pyrazolo[3,4-c]pyridin-6-yl)methanone] gave an IC50 of 2590 nM.

Turning to `COc1cc(Cl)cc(C(=O)N2CCc3c(nn(C)c3-c3ccccc3)C2)c1` [Example 16, (3-Chloro-5-methoxyphenyl)(2-methyl-3-phenyl-2,4,5,7-tetrahydro-6H-pyrazolo[3,4-c]pyridin-6-yl)methanone], the IC50 came to 77.9 nM.

`Cc1cccc(C(=O)N2CCc3c(nn(C)c3-c3ccccc3)C2)c1N` [Example 17, (2-Amino-3-methylphenyl)(2-methyl-3-phenyl-2,4,5,7-tetrahydro-6H-pyrazolo[3,4-c]pyridin-6-yl)methanone] had an IC50 of 1400 nM.

On to `Cn1nc2c(c1-c1ccccc1)CCN(C(=O)c1ccccc1-n1cncn1)C2` [Example 18, (2-(1H-1,2,4-Triazol-1-yl)phenyl)(2-methyl-3-phenyl-2,4,5,7-tetrahydro-6H-pyrazolo[3,4-c]pyridin-6-yl)methanone], for which inhibition was half-maximal at 671 nM (IC50).

On to `Cc1c(C(=O)N2CCc3c(nn(C)c3-c3ccccc3)C2)cccc1N1CCOCC1` [Example 19, (2-Methyl-3-morpholinophenyl)(2-methyl-3-phenyl-2,4,5,7-tetrahydro-6H-pyrazolo[3,4-c]pyridin-6-yl)methanone], for which inhibition was half-maximal at 4820 nM (IC50).

`Cn1ncc(C(=O)N2CCc3c(nn(C)c3-c3ccccc3)C2)c1Cl` [Example 20, (5-Chloro-1-methyl-1H-pyrazol-4-yl)(2-methyl-3-phenyl-2,4,5,7-tetrahydro-6H-pyrazolo[3,4-c]pyridin-6-yl)methanone]: inhibition was half-maximal at 2090 nM (IC50).

`Cn1nc2c(c1-c1ccccc1)CCN(C(=O)c1cnn(C)c1C1CC1)C2` [Example 22, (5-Cyclopropyl-1-methyl-1H-pyrazol-4-yl)(2-methyl-3-phenyl-2,4,5,7-tetrahydro-6H-pyrazolo[3,4-c]pyridin-6-yl)methanone] registered a concentration for half-maximal inhibition (IC50) of 683 nM.

Regarding `Cn1nc2c(c1-c1ccccc1)CCN(C(=O)c1ncn(-c3ccccc3)n1)C2` [Example 23, (2-Methyl-3-phenyl-2,4,5,7-tetrahydro-6H-pyrazolo[3,4-c]pyridin-6-yl)(1-phenyl-1H-1,2,4-triazol-3-yl)methanone], the IC50 is 847 nM.

Compound `Cn1nc2c(c1-c1ccccc1)CCN(C(=O)c1cccc(OC(F)F)n1)C2` [Example 24, (6-(Difluoromethoxy)pyridin-2-yl)(2-methyl-3-phenyl-2,4,5,7-tetrahydro-6H-pyrazolo[3,4-c]pyridin-6-yl)methanone] displayed an IC50 of 2560 nM.

`Cn1nc2c(c1-c1ccccc1)CCN(C(=O)c1cccc(OC(F)(F)F)n1)C2` [Example 25, (2-Methyl-3-phenyl-2,4,5,7-tetrahydro-6H-pyrazolo[3,4-c]pyridin-6-yl)(6-(trifluoromethoxy)pyridin-2-yl)methanone]: the IC50 was found to be 2430 nM.

Compound `Cn1nc2c(c1-c1ccccc1)CCN(C(=O)c1cccc3c1NC(=O)CO3)C2` [Example 26, 5-(2-Methyl-3-phenyl-4,5,6,7-tetrahydro-2H-pyrazolo[3,4-c]pyridine-6-carbonyl)-2H-benzo[b][1,4]oxazin-3(4H)-one] registered an IC50 of 2460 nM.

In the case of `CN1CCOc2cc(C(=O)N3CCc4c(nn(C)c4-c4ccccc4)C3)ccc21` [Example 27, (4-Methyl-3,4-dihydro-2H-benzo[b][1,4]oxazin-7-yl)(2-methyl-3-phenyl-2,4,5,7-tetrahydro-6H-pyrazolo[3,4-c]pyridin-6-yl)methanone], half-maximal inhibition (IC50) required 290 nM.

`Cn1nc2c(c1-c1ccccc1)CCN(C(=O)c1cccc3c1OCO3)C2` [Example 28, Benzo[d][1,3]dioxol-4-yl(2-methyl-3-phenyl-2,4,5,7-tetrahydro-6H-pyrazolo[3,4-c]pyridin-6-yl)methanone]: the IC50 came to 4000 nM.

For the compound `Cn1nc2c(c1-c1ccccc1)CCN(C(=O)c1ccc3c(c1)OCO3)C2` [Example 29, Benzo[d][1,3]dioxol-5-yl(2-methyl-3-phenyl-2,4,5,7-tetrahydro-6H-pyrazolo[3,4-c]pyridin-6-yl)methanone], the IC50 was 1950 nM.

For `Cn1nc2c(c1-c1ccccc1)CCN(C(=O)c1cccc3c1OC(F)(F)O3)C2` [Example 30, (2,2-Difluorobenzo[d][1,3]dioxol-4-yl)(2-methyl-3-phenyl-2,4,5,7-tetrahydro-6H-pyrazolo[3,4-c]pyridin-6-yl)methanone], the IC50 turned out to be 1040 nM.
